Patent US20140141503A1, “CELL CULTURE SUBSTRATE HAVING UNIFORM SURFACE COATING” (Corning Incorporated, priority 2012, published 2014)

Assay: Compound extraction (loss) from PBS buffer by PDMS coating, UV-VIS at 260 nm
Assay type: physicochemical
Conditions: 200 μL of 200 μM Nefazodone-PBS, 24 hours, less than 0.8 mg of PDMS in 200 μL PBS (volume ratio PDMS to buffer less than 1/250)
Experimental: Nefazodone is a small hydrophobic compound that can be readily extracted from aqueous buffer by PDMS following a partition function rule, which means the loss of Nefazodone […] with the amount of PDMS present in a given volume of buffer. In order to determine the safe quantity of PDMS for use with 200 μL of PBS buffer, 200 μL of a 200 μM Nefazodone-PBS solution was incubated in wells (formed generally as described above in EXAMPLE 4) containing varying PDMS coating amounts from 0.005 mg to 4 mg per well for 24 hours. After 24 hours the Nefazodone that remained in the PBS buffer was measured by UV-VIS adsorption at 260 nm. The results shown in FIG. 11 indicate that the loss of Nefazodone is negligible in the presence of less than 0.8 mg of PDMS in 200 μL of PBS buffer (meaning volume ratio of PDMS to buffer is less than 1/250).

loss of Nefazodone from PBS buffer: negligible
Structure (SMILES): CCc1nn(CCCN2CCN(c3cccc(Cl)c3)CC2)c(=O)n1CCOc1ccccc1 [Nefazodone]
